How the values were obtained:
[1] = target: Bromodomain-containing protein 4 (Homo sapiens, UniProt O60885)
Description: Binding affinity to BRD4 D2 (unknown origin) assessed as dissociation constant by isothermal titration calorimetry

[2] = target: Bromodomain-containing protein 2 (Homo sapiens, UniProt P25440)
Chain of Bromodomain-containing protein 2 (P25440 whole entry): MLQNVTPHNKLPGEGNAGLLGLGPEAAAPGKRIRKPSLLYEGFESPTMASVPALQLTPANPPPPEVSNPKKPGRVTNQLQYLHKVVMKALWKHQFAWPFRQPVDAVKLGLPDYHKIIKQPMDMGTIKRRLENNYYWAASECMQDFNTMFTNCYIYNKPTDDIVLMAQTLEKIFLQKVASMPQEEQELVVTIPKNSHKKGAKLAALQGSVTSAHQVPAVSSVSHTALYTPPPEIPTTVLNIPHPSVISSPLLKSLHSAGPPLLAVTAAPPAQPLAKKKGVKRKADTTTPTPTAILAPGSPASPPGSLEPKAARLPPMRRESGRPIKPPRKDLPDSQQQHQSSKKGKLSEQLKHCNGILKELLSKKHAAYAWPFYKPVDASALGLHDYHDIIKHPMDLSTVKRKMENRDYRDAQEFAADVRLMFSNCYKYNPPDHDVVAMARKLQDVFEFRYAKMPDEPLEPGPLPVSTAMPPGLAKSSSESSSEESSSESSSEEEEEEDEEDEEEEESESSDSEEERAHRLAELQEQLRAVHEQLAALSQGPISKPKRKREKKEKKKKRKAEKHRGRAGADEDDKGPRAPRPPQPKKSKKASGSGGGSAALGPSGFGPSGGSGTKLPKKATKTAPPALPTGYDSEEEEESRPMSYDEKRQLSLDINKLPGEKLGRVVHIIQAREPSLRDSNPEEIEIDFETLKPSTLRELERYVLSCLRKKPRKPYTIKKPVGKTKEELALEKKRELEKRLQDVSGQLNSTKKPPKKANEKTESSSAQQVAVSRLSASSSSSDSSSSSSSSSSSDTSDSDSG
Description: Binding affinity to BRD2 D1 (unknown origin) assessed as dissociation constant by isothermal titration calorimetry

SMILES: Cc1ccc(C(C)C)cc1Oc1nccc(-c2c(-c3ccc(C(F)(F)F)cc3)ncn2C2CCN(CCN(C)C)CC2)n1
- Kd [1]: Not Active
- Kd [2]: Not Active

SMILES: Cc1ccc(C(C)C)cc1Oc1nccc(-c2c(-c3ccc(C(F)(F)F)cc3)ncn2[C@H]2CCN(CCN(C)C)C2)n1
- Kd [1]: Not Active
- Kd [2]: Not Active
